In PubChem BioAssay AID330 (DTP/NCI, 2004):
Several values for one entry are separate records, joined by “and”; a condition that tells them apart may be missing. Equal values may be shown once. Inconclusive results and toxic doses are left out. How the source made its calls: active means survival T/C of 150% or more; inactive means T/C below 125% in these data.

System: P388 leukemia ip, CD2F1 mice, survival T/C
Assay: NCI In Vivo Anticancer Drug Screen. Data for tumor model P388 Leukemia (intraperitoneal) in CD2F1 (CDF1) mice
Conditions: endpoint: median survival time, higher = longer survival
Summary of the method: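 Mice carrying the transplanted tumor received test compound or vehicle. Survival was recorded in each group, and the value is the treated-group measurement divided by that of the vehicle-treated control group.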

[1] = dose: 50.0 mg/kg/injection, schedule: Q01DX005 (ip), vehicle: saline with Tween-80
[2] = dose: 100.0 mg/kg/injection, schedule: Q01DX005 (ip), vehicle: saline with Tween-80
[3] = dose: 200.0 mg/kg/injection, schedule: Q01DX005 (ip), vehicle: saline with Tween-80
[4] = dose: 50.0 mg/kg/injection, schedule: Q01DX009 (ip), vehicle: Klucel (hydroxypropylcellulose) (HPC)
[5] = dose: 100.0 mg/kg/injection, schedule: Q01DX009 (ip), vehicle: Klucel (hydroxypropylcellulose) (HPC)
[6] = dose: 50.0 mg/kg/injection, schedule: Q01DX005 (ip), vehicle: Klucel (hydroxypropylcellulose) (HPC)
[7] = dose: 100.0 mg/kg/injection, schedule: Q01DX005 (ip), vehicle: Klucel (hydroxypropylcellulose) (HPC)
[8] = dose: 50.0 mg/kg/injection, schedule: Q01DX009 (ip), vehicle: saline
[9] = dose: 100.0 mg/kg/injection, schedule: Q01DX009 (ip), vehicle: saline
[10] = dose: 200.0 mg/kg/injection, schedule: Q01DX009 (ip), vehicle: saline
[11] = dose: 200.0 mg/kg/injection, schedule: Q01DX005 (ip), vehicle: Klucel (hydroxypropylcellulose) (HPC)
[12] = dose: 60.0 mg/kg/injection, schedule: Q01DX005 (ip), vehicle: saline with Tween-80
[13] = dose: 120.0 mg/kg/injection, schedule: Q01DX005 (ip), vehicle: saline with Tween-80
[14] = dose: 240.0 mg/kg/injection, schedule: Q01DX005 (ip), vehicle: saline with Tween-80

Measured: T/C

CCOC(=O)CC(=O)c1sc(SC)c(C#N)c1N
inactive: [1] 106 % of control | [2] 100 % of control | [3] 93 % of control

COc1ccc(S(=O)(=O)N(C)/N=C/C(=O)O)cc1
inactive: dose: 12.5 mg/kg/injection, schedule: Q01DX005 (ip), vehicle: distilled water + Tween-80 100 % of control | dose: 25.0 mg/kg/injection, schedule: Q01DX005 (ip), vehicle: distilled water + Tween-80 106 % of control | dose: 50.0 mg/kg/injection, schedule: Q01DX005 (ip), vehicle: distilled water + Tween-80 106 % of control | dose: 100.0 mg/kg/injection, schedule: Q01DX005 (ip), vehicle: distilled water + Tween-80 95 % of control | dose: 200.0 mg/kg/injection, schedule: Q01DX005 (ip), vehicle: distilled water + Tween-80 97 % of control | dose: 200.0 mg/kg/injection, schedule: Q01DX005 (ip), vehicle: water 106 % of control | dose: 400.0 mg/kg/injection, schedule: Q01DX005 (ip), vehicle: water 102 % of control

O=C(C=C(C(F)(F)F)C(F)(F)F)c1ccc(Cl)c2ccccc12
inactive: dose: 12.5 mg/kg/injection, schedule: Q04DX003 (ip), vehicle: saline with Tween-80 113 % of control | dose: 25.0 mg/kg/injection, schedule: Q04DX003 (ip), vehicle: saline with Tween-80 118 % of control

CC(=O)C(C[n+]1ccccc1)c1ccccc1 (stereo not given)
inactive: dose: 15.0 mg/kg/injection, schedule: Q01DX005 (ip), vehicle: saline 98 % of control | dose: 30.0 mg/kg/injection, schedule: Q01DX005 (ip), vehicle: saline 98 % of control | dose: 60.0 mg/kg/injection, schedule: Q01DX005 (ip), vehicle: saline 102 % of control and 107 % of control

O=C(OCC1N=C1c1ccccc1)c1ccc([N+](=O)[O-])cc1 (stereo not given)
inactive: dose: 50.0 mg/kg/injection, schedule: Q04DX003 (ip), vehicle: suspension in saline 99 % of control | dose: 100.0 mg/kg/injection, schedule: Q04DX003 (ip), vehicle: suspension in saline 98 % of control | dose: 200.0 mg/kg/injection, schedule: Q04DX003 (ip), vehicle: suspension in saline 100 % of control

CC(=O)O/C(C#N)=C1\CCCC\C1=C(\C#N)OC(C)=O
inactive: dose: 6.25 mg/kg/injection, schedule: Q01DX001 (ip), vehicle: saline with Tween-80 103 % of control | dose: 12.5 mg/kg/injection, schedule: Q01DX001 (ip), vehicle: saline with Tween-80 107 % of control | dose: 25.0 mg/kg/injection, schedule: Q01DX001 (ip), vehicle: saline with Tween-80 103 % of control

O=C1c2ccccc2C(=O)c2c(O)c(NCCO)cc(O)c21
inactive: dose: 100.0 mg/kg/injection, schedule: Q04DX002 (ip), vehicle: Klucel (hydroxypropylcellulose) (HPC) 92 % of control | dose: 200.0 mg/kg/injection, schedule: Q04DX002 (ip), vehicle: Klucel (hydroxypropylcellulose) (HPC) 101 % of control | dose: 400.0 mg/kg/injection, schedule: Q04DX002 (ip), vehicle: Klucel (hydroxypropylcellulose) (HPC) 93 % of control

Cc1c(-c2ccccc2)n(O)c(-c2ccccc2Cl)[n+]1[O-]
inactive: dose: 50.0 mg/kg/injection, schedule: Q01DX009 (ip), vehicle: saline with Tween-80 94 % of control | dose: 100.0 mg/kg/injection, schedule: Q01DX009 (ip), vehicle: saline with Tween-80 98 % of control | dose: 200.0 mg/kg/injection, schedule: Q01DX009 (ip), vehicle: saline with Tween-80 100 % of control

c1ccc(-c2[s+]ccc3ccccc23)cc1
inactive: [4] 115 % of control | [5] 118 % of control | dose: 200.0 mg/kg/injection, schedule: Q01DX009 (ip), vehicle: Klucel (hydroxypropylcellulose) (HPC) 117 % of control

CC(C)n1cc(C(C)(C)C)nc1SSc1nc(C(C)(C)C)cn1C(C)C
inactive: [6] 100 % of control | [7] 96 % of control

N#Cc1c(N)sc(=S)c2ccccc12
inactive: [8] 91 % of control | [9] 104 % of control | [10] 95 % of control

Cc1c2oc3c(C)ccc(C(=O)NCCN4CCCCC4)c3nc-2c(C(=O)NCCN2CCCCC2)c(N)c1=O
inactive: dose: 12.5 mg/kg/injection, schedule: Q01DX009 (ip), vehicle: Klucel (hydroxypropylcellulose) (HPC) 98 % of control | dose: 25.0 mg/kg/injection, schedule: Q01DX009 (ip), vehicle: Klucel (hydroxypropylcellulose) (HPC) 117 % of control | [4] 115 % of control | [5] 110 % of control

N#CC1=C(C#N)CC2C(C1)OC1CC(C#N)=C(C#N)CC12 (stereo not given)
inactive: [8] 100 % of control | [9] 101 % of control | [10] 100 % of control

CCCn1c2nc(=O)[nH]c(=O)c-2cc2ccccc21
inactive: dose: 10.0 mg/kg/injection, schedule: Q01DX009 (ip), vehicle: saline with Tween-80 105 % of control | dose: 20.0 mg/kg/injection, schedule: Q01DX009 (ip), vehicle: saline with Tween-80 103 % of control | dose: 40.0 mg/kg/injection, schedule: Q01DX009 (ip), vehicle: saline with Tween-80 113 % of control

CC1CCC(C(=O)C(Cl)Cc2ccccc2)CC1 (stereo not given)
inactive: [6] 88 % of control | [7] 92 % of control

CC1(C)NN=C2C(=CC=C3NNC(C)(C)N32)n2cccc21
inactive: [1] 104 % of control | [2] 106 % of control

O=C(N/N=C/C(O)C1OC(=O)C(O)C1O)c1ccncc1 (stereo not given)
inactive: [6] 105 % of control | [7] 101 % of control | [11] 99 % of control

CC(OC(C(O)C=O)C(O)C(O)CO)C(=O)N[C@@H](C)C(=O)O (stereo not given in full)
inactive: [12] 101 % of control | [13] 100 % of control | [14] 100 % of control

CCC[CH2][Sn]([CH2]CCC)([CH2]CCC)[S]C(=S)NCCNC(=S)[S][Sn]([CH2]CCC)([CH2]CCC)[CH2]CCC
inactive: dose: 6.25 mg/kg/injection, schedule: Q01DX010 (ip), vehicle: saline 120 % of control

CC(Cc1ccccc1)N(C)Cc1ccc(-c2ccc(Cl)cc2)o1 (stereo not given)
inactive: [12] 110 % of control | [13] 107 % of control | [14] 107 % of control

Oc1ccc(N=Nc2c(-c3ccccc3)nn(C(=S)S)c2-c2ccccc2)cc1
inactive: [1] 103 % of control | [2] 102 % of control | [3] 101 % of control

CCN(CC)CCC(CNc1c(C)cnc2cc(Cl)ccc12)c1ccc(OC)cc1 (stereo not given)
inactive: [1] 105 % of control | [2] 105 % of control | [3] 105 % of control

CCCCCCCCCCCc1n(Cc2ccccc2)c2ccccc2[n+]1C
inactive: dose: 0.25 mg/kg/injection, schedule: Q01DX009 (ip), vehicle: saline sonified 104 % of control | dose: 0.5 mg/kg/injection, schedule: Q01DX009 (ip), vehicle: saline sonified 109 % of control

CC(C)(CN1CCCN(CC(C)(C)C(=O)O)C1=O)C(=O)O
inactive: [8] 93 % of control | [9] 94 % of control | [10] 98 % of control

OCCN1CCN(CCCN2c3cc(Cl)ccc3Sc3ccsc32)CC1
inactive: [6] 97 % of control | [7] 97 % of control

CC(C)=Cc1cc(CCC/C(C)=C/Cc2c(O)cc(C)c(C(=O)O)c2O)co1
inactive: dose: 4.5 mg/kg/injection, schedule: Q01DX005 (ip), vehicle: Klucel (hydroxypropylcellulose) (HPC) 100 % of control | dose: 9.0 mg/kg/injection, schedule: Q01DX005 (ip), vehicle: Klucel (hydroxypropylcellulose) (HPC) 91 % of control | dose: 18.0 mg/kg/injection, schedule: Q01DX005 (ip), vehicle: Klucel (hydroxypropylcellulose) (HPC) 92 % of control | dose: 36.0 mg/kg/injection, schedule: Q01DX005 (ip), vehicle: Klucel (hydroxypropylcellulose) (HPC) 98 % of control | [6] 105 % of control | dose: 72.0 mg/kg/injection, schedule: Q01DX005 (ip), vehicle: Klucel (hydroxypropylcellulose) (HPC) 88 % of control | [7] 107 % of control | [11] 98 % of control
